Reference: ChEMBL document CHEMBL3885881, “DrugMatrix”

Species: Rattus norvegicus
Assay: DrugMatrix - Regimen: Daily Repeat
Format: toxicity, organism-based, Sprague-Dawley
Set-up: regimen Daily Repeat, gender Male, age 6-8 weeks
Conditions: in vivo; for ABSOLUTE BASOPHIL / ABSOLUTE EOSINOPHIL / ABSOLUTE LYMPHOCYTE / ABSOLUTE MONOCYTE / ABSOLUTE SEGMENTED NEUTROPHIL / BASOPHIL / EOSINOPHIL / ERYTHROCYTE COUNT / HEMATOCRIT / LEUKOCYTE COUNT / LYMPHOCYTE / MEAN CORPUSCULAR HEMOGLOBIN / NEUTROPHIL / NUCLEATED RED BLOOD CELLS / PLATELET COUNT / HEMOGLOBIN / MONOCYTE / MEAN CORPUSCULAR HEMOGLOBIN CONCENTRATION / MEAN CORPUSCULAR VOLUME: tissue Blood; for ALANINE AMINOTRANSFERASE / ALKALINE PHOSPHATASE / ASPARTATE AMINOTRANSFERASE / BLOOD UREA NITROGEN / CARBON DIOXIDE / CHOLESTEROL / CREATINE PHOSPHOKINASE / CREATININE / LACTATE DEHYDROGENASE / PHOSPHORUS / POTASSIUM / TOTAL BILIRUBIN / TOTAL PROTEIN / URIC ACID / GLUCOSE / LIPASE / ALBUMIN / CHLORIDE / SODIUM: tissue Plasma
[1] = iv, 0 mg/kg, 72 h, dose level Control, time 3 day, vehicle 100 % SALINE
[2] = iv, 0 mg/kg, 120 h, dose level Control, time 5 day, vehicle 100 % SALINE
[3] = po, 200 mg/kg, 72 h, route oral GAVAGE, dose level Low, time 3 day, […]
[4] = po, 200 mg/kg, 120 h, route oral GAVAGE, dose level Low, time 5 day, […]

Compound: LIPOPOLYSACCHARIDE E. COLI O55:B5
- ABSOLUTE BASOPHIL [1]: 0 CELLS/uL
- ABSOLUTE EOSINOPHIL [1]: 33.67 CELLS/uL
- ABSOLUTE LYMPHOCYTE [1]: 12123.5 CELLS/uL
- ABSOLUTE MONOCYTE [1]: 243.5 CELLS/uL
- ABSOLUTE SEGMENTED NEUTROPHIL [1]: 1282.67 CELLS/uL
- BASOPHIL [1]: 0%
- EOSINOPHIL [1]: 0.33%
- ERYTHROCYTE COUNT [1]: 5.18 x10E6/uL
- HEMATOCRIT [1]: 32.63%
- LEUKOCYTE COUNT [1]: 13.68 x10E3/uL
- LYMPHOCYTE [1]: 88.67%
- MEAN CORPUSCULAR HEMOGLOBIN [1]: 24.98 pg
- NEUTROPHIL [1]: 9.17%
- NUCLEATED RED BLOOD CELLS [1]: 0.17 /100WBC
- PLATELET COUNT [1]: 1114.5 x10E3/uL
- ALANINE AMINOTRANSFERASE [1]: 46.17 u/L
- ALKALINE PHOSPHATASE [1]: 374.67 u/L
- ASPARTATE AMINOTRANSFERASE [1]: 89.33 u/L
- BLOOD UREA NITROGEN [1]: 14.83 mg/dL
- CARBON DIOXIDE [1]: 25.67 mmol/L
- CHOLESTEROL [1]: 63.5 mg/dL
- CREATINE PHOSPHOKINASE [1]: 494.67 u/L
- CREATININE [1]: 0.17 mg/dL
- LACTATE DEHYDROGENASE [1]: 269.33 u/L
- PHOSPHORUS [1]: 11.27 mg/dL
- POTASSIUM [1]: 5.85 MEQ/L
- TOTAL BILIRUBIN [1]: 0.18 mg/dL
- TOTAL PROTEIN [1]: 5.87 G/DL
- URIC ACID [1]: 1.28 mg/dL
- ABSOLUTE BASOPHIL [2]: 0 CELLS/uL
- ABSOLUTE EOSINOPHIL [2]: 24.67 CELLS/uL
- ABSOLUTE LYMPHOCYTE [2]: 11832.83 CELLS/uL
- ABSOLUTE MONOCYTE [2]: 279.67 CELLS/uL
- ABSOLUTE SEGMENTED NEUTROPHIL [2]: 1446.17 CELLS/uL
- BASOPHIL [2]: 0%
- EOSINOPHIL [2]: 0.17%
- ERYTHROCYTE COUNT [2]: 5.61 x10E6/uL
- HEMATOCRIT [2]: 35.02%
- HEMOGLOBIN [2]: 13.82 G/DL
- LEUKOCYTE COUNT [2]: 13.58 x10E3/uL
- LYMPHOCYTE [2]: 87.67%
- MEAN CORPUSCULAR HEMOGLOBIN [2]: 24.68 pg
- MONOCYTE [2]: 2%
- NEUTROPHIL [2]: 10.17%
- NUCLEATED RED BLOOD CELLS [2]: 0 /100WBC
- PLATELET COUNT [2]: 1178.17 x10E3/uL
- ALANINE AMINOTRANSFERASE [2]: 52.83 u/L
- ALKALINE PHOSPHATASE [2]: 370 u/L
- ASPARTATE AMINOTRANSFERASE [2]: 100.5 u/L
- BLOOD UREA NITROGEN [2]: 15.17 mg/dL
- CARBON DIOXIDE [2]: 28.83 mmol/L
- CHOLESTEROL [2]: 69.5 mg/dL
- CREATINE PHOSPHOKINASE [2]: 488.67 u/L
- CREATININE [2]: 0.23 mg/dL
- GLUCOSE [2]: 165 mg/dL
- LACTATE DEHYDROGENASE [2]: 502.17 u/L
- LIPASE [2]: 11 u/L
- PHOSPHORUS [2]: 11.7 mg/dL
- POTASSIUM [2]: 5.85 MEQ/L
- TOTAL BILIRUBIN [2]: 0.18 mg/dL

Compound: CCOc1ccc(NC(C)=O)cc1 [PHENACETIN]
- ABSOLUTE BASOPHIL [3]: 0 CELLS/uL
- ABSOLUTE EOSINOPHIL [3]: 0 CELLS/uL
- ABSOLUTE LYMPHOCYTE [3]: 12319.33 CELLS/uL
- ABSOLUTE MONOCYTE [3]: 297 CELLS/uL
- ABSOLUTE SEGMENTED NEUTROPHIL [3]: 1617 CELLS/uL
- BASOPHIL [3]: 0%
- EOSINOPHIL [3]: 0%
- ERYTHROCYTE COUNT [3]: 5.63 x10E6/uL
- HEMATOCRIT [3]: 34.9%
- HEMOGLOBIN [3]: 13.6 G/DL
- LEUKOCYTE COUNT [3]: 14.23 x10E3/uL
- LYMPHOCYTE [3]: 87%
- MEAN CORPUSCULAR HEMOGLOBIN [3]: 24.17 pg
- MEAN CORPUSCULAR HEMOGLOBIN CONCENTRATION [3]: 38.97 G/DL
- MEAN CORPUSCULAR VOLUME [3]: 62.03 fL
- MONOCYTE [3]: 2%
- NEUTROPHIL [3]: 11%
- NUCLEATED RED BLOOD CELLS [3]: 0 /100WBC
- PLATELET COUNT [3]: 1192.67 x10E3/uL
- ALANINE AMINOTRANSFERASE [3]: 73 u/L
- ALBUMIN [3]: 4.07 G/DL
- ALKALINE PHOSPHATASE [3]: 405 u/L
- ASPARTATE AMINOTRANSFERASE [3]: 98.33 u/L
- BLOOD UREA NITROGEN [3]: 12 mg/dL
- CARBON DIOXIDE [3]: 24.67 mmol/L
- CHLORIDE [3]: 101 MEQ/L
- CHOLESTEROL [3]: 65.33 mg/dL
- CREATININE [3]: 0.2 mg/dL
- GLUCOSE [3]: 172 mg/dL
- LACTATE DEHYDROGENASE [3]: 186.33 u/L
- LIPASE [3]: 11.33 u/L
- PHOSPHORUS [3]: 11.6 mg/dL
- POTASSIUM [3]: 6.01 MEQ/L
- SODIUM [3]: 142.63 MEQ/L
- TOTAL BILIRUBIN [3]: 0.2 mg/dL
- TOTAL PROTEIN [3]: 5.6 G/DL
- URIC ACID [3]: 1.77 mg/dL
- ABSOLUTE BASOPHIL [4]: 0 CELLS/uL
- ABSOLUTE EOSINOPHIL [4]: 0 CELLS/uL
- ABSOLUTE LYMPHOCYTE [4]: 14305.33 CELLS/uL
- ABSOLUTE MONOCYTE [4]: 246 CELLS/uL
- ABSOLUTE SEGMENTED NEUTROPHIL [4]: 1648.67 CELLS/uL
- BASOPHIL [4]: 0%
- EOSINOPHIL [4]: 0%
- ERYTHROCYTE COUNT [4]: 5.8 x10E6/uL
- HEMATOCRIT [4]: 35.23%
- HEMOGLOBIN [4]: 14.07 G/DL
- LEUKOCYTE COUNT [4]: 16.2 x10E3/uL
- LYMPHOCYTE [4]: 88%
- MEAN CORPUSCULAR HEMOGLOBIN [4]: 24.27 pg
- MEAN CORPUSCULAR HEMOGLOBIN CONCENTRATION [4]: 39.93 G/DL
- MEAN CORPUSCULAR VOLUME [4]: 60.8 fL
- MONOCYTE [4]: 1.67%
- NEUTROPHIL [4]: 10.33%
- NUCLEATED RED BLOOD CELLS [4]: 0 /100WBC
- PLATELET COUNT [4]: 1381.67 x10E3/uL
- ALANINE AMINOTRANSFERASE [4]: 72.67 u/L
- ALBUMIN [4]: 4.13 G/DL
- ALKALINE PHOSPHATASE [4]: 403.33 u/L
- ASPARTATE AMINOTRANSFERASE [4]: 95.33 u/L
- BLOOD UREA NITROGEN [4]: 13.33 mg/dL
- CARBON DIOXIDE [4]: 31.33 mmol/L
- CHLORIDE [4]: 101.33 MEQ/L
- CHOLESTEROL [4]: 68.67 mg/dL
- CREATINE PHOSPHOKINASE [4]: 257.33 u/L
- CREATININE [4]: 0.19 mg/dL
- GLUCOSE [4]: 164.67 mg/dL
- LACTATE DEHYDROGENASE [4]: 323.67 u/L
- LIPASE [4]: 11.67 u/L
- PHOSPHORUS [4]: 10.7 mg/dL
- POTASSIUM [4]: 6.24 MEQ/L
- SODIUM [4]: 143.9 MEQ/L
- TOTAL BILIRUBIN [4]: 0.2 mg/dL
- TOTAL PROTEIN [4]: 5.87 G/DL
- URIC ACID [4]: 1.77 mg/dL
